From BindingDB's records for patent US20240368150 (Hoffmann-La Roche, 2024)

Key:
[1] = molecular target: Diacylglycerol kinase zeta (Homo sapiens, UniProt Q13574)
[2] = molecular target: Diacylglycerol kinase alpha (Homo sapiens, UniProt P23743); test: In Vitro DGK Inhibition Assays
Method: DGK α and ζ kinase use ATP to phosphorylate the substrate 1,2-dilauroyl-sn-glycerol (DLG, incorporated in the liposomes). ATP is converted to ADP as a result of this enzymatic reaction. After the kinase reaction, an ATP-depletion reagent is added to terminate the kinase reaction and deplete any remaining ATP, leaving only ADP. Second, a detection reagent is added to simultaneously convert ADP to ATP and allow the newly synthesized ATP to be converted to light using a coupled luciferase/luciferin reaction. A concentrated liposome solution was prepared in assay buffer without DTT and BSA: 2 mM of DLG in 21 mM of total liposome (2 mM DLG/8 mM PS/11 mM PC). […] The reactions were started by addition of DGK α and ζ kinases at 4 nM and 2 nM final concentrations, respectively. After 1 hour reaction, the amount of ADP formed was detected with the ADP-Glo kinase assay (Promega) according to the manufacturer instructions. Compounds were added in 11-points dose response, starting at […], 1:3 dilutions, with a final DMSO concentration of 2%. The multidrop combi was used as a liquid handler and luminescence was read with 0.5 s by the envision reader (PE).

Diacylglycerol kinase alpha, sequence (P23743 whole entry): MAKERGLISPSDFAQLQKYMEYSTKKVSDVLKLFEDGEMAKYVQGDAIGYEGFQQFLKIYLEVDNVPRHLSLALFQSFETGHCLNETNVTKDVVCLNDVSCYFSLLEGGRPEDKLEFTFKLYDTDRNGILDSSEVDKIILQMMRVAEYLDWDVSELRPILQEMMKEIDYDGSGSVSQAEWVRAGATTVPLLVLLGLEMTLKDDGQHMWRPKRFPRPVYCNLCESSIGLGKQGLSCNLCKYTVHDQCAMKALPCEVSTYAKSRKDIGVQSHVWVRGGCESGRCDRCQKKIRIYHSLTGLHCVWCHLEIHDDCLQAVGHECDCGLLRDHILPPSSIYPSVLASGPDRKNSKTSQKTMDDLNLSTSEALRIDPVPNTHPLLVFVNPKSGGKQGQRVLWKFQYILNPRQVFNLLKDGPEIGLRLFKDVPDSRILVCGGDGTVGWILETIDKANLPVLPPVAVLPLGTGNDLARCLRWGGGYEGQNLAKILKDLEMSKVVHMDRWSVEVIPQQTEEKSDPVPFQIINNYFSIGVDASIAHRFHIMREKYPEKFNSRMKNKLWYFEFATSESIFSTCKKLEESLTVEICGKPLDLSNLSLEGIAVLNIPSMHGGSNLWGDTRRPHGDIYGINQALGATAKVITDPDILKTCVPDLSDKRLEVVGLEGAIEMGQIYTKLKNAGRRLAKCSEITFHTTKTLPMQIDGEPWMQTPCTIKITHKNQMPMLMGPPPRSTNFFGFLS
Diacylglycerol kinase zeta, sequence (Q13574 as listed by the source): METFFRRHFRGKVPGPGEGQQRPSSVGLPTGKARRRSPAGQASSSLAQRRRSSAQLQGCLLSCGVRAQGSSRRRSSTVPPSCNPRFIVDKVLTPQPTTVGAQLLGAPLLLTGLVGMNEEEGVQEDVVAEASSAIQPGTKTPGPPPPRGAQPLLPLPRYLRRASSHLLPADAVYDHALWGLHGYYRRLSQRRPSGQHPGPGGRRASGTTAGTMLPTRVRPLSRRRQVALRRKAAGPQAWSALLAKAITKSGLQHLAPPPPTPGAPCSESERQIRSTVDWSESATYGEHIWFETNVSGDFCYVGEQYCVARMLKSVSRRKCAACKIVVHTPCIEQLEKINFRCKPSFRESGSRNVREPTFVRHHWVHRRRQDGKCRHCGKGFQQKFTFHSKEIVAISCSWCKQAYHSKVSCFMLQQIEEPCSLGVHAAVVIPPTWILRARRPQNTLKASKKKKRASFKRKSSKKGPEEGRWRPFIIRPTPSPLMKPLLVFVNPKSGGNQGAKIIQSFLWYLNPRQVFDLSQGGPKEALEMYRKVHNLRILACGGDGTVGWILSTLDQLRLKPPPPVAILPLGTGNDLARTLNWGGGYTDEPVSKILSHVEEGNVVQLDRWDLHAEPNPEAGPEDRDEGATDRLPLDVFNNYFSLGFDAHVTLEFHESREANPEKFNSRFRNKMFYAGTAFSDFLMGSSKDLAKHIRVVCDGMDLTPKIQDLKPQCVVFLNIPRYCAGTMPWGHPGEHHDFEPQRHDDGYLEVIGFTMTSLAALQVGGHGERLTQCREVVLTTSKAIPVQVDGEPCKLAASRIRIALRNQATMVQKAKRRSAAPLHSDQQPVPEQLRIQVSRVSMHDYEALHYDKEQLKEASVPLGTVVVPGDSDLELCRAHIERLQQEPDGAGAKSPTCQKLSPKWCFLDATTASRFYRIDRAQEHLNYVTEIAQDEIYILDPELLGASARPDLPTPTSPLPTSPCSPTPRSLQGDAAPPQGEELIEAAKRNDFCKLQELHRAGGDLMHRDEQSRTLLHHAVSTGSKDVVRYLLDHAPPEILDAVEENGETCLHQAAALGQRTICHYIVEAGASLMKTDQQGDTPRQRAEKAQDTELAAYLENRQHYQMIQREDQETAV

| Structure (SMILES) | IC50 [1] | IC50 [2] |
| --- | --- | --- |
| CN(C)C(=O)c1nnc(-c2cc3c(cc2F)S(=O)(=O)C[C@H](N)C(=O)N3Cc2ccc(Cl)cc2)o1 [US20240368150, Example 87] | 3.67 µM | 3.06 µM |
| COC1(c2nnc(-c3ccc4c(c3)N(Cc3ccc(Cl)cc3)C(=O)[C@@H](N)CS4(=O)=O)o2)CCC(F)(F)CC1 [US20240368150, Example 378] | 1.44 µM | 4.06 µM |
